Experimental data taken from ChEMBL document CHEMBL1201862, “PubChem BioAssay data set” (2004).
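All cell lines were grown in 96-well plates and treated with compound for 48 hours. GI50 marks 50% less growth.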 Calls of active or inactive are those of the source. Cut-off read from the data, not from the text of the source: active = GI50 up to about 1.1 µM and inactive = higher.

Assays:
Test in all cases: NCI-60 cell line screen, 48 h
[1] = tested on: LOX IMVI
[2] = tested on: U-251
[3] = tested on: LXFL 529
[4] = tested on: HT-29
[5] = tested on: OVCAR-3
[6] = tested on: M19-MEL
[7] = tested on: RXF 393
[8] = tested on: HCT-15
[9] = tested on: DMS-273
[10] = tested on: SNB-75
[11] = tested on: EKVX
[12] = tested on: SK-OV-3
[13] = tested on: SF-539
[14] = tested on: UO-31
[15] = tested on: HOP-92
[16] = tested on: SK-MEL-28
[17] = tested on: IGROV-1
[18] = tested on: SF-268
[19] = tested on: 786-0
[20] = tested on: SW-620
[21] = tested on: A498
[22] = tested on: HL-60
[23] = tested on: OVCAR-5
[24] = tested on: NCI-H226
[25] = tested on: SF-295
[26] = tested on: DMS-114
[27] = tested on: SN12C
[28] = tested on: NCI-H23
[29] = tested on: DLD-1
[30] = tested on: NCI-H460
[31] = tested on: ACHN
[32] = tested on: SK-MEL-2
[33] = tested on: OVCAR-4
[34] = tested on: KM12
[35] = tested on: COLO 205
[36] = tested on: A549
[37] = tested on: SK-MEL-5
[38] = tested on: SNB-19
[39] = tested on: CCRF-CEM
[40] = tested on: CAKI-1
[41] = tested on: MOLT-4
[42] = tested on: HCT-116
[43] = tested on: Malme-3M
[44] = tested on: OVCAR-8
[45] = tested on: TK-10
[46] = tested on: UACC-257
[47] = tested on: KM-20L2
[48] = tested on: K562
[49] = tested on: SR
[50] = tested on: XF498
[51] = tested on: UACC-62
[52] = tested on: HOP-62
[53] = tested on: HOP-18
[54] = tested on: M14
[55] = tested on: NCI-H522
[56] = tested on: SNB-78
[57] = tested on: RPMI-8226
[58] = tested on: HCC 2998
[59] = tested on: RXF 631

For `O=C1C2C3CCC(C2C(=O)N1CO)C1C2C(=O)N(CO)C(=O)C2C31` (stereo not drawn), the GI50 [1] was 37.5 µM (inactive), the GI50 [2] was > 40.3 µM (inactive) and the GI50 [3] was 55.3 µM (inactive). The GI50 [4] was 58.7 µM (inactive), the GI50 [5] was > 100 µM (inactive) and the GI50 [6] was 1 µM (active). The GI50 [7] was > 46.9 µM (inactive), the GI50 [8] was 26.5 µM and the GI50 [9] was 36.1 µM (inactive). For the same compound, the GI50 [10] was 50.6 µM (inactive), the GI50 [11] was > 100 µM (inactive) and the GI50 [12] was > 100 µM (inactive). The GI50 [13] was 43 µM (inactive), the GI50 [14] was > 100 µM (inactive) and the GI50 [15] was > 63.1 µM (inactive). For the same compound, the GI50 [16] was > 58.9 µM (inactive), the GI50 [17] was > 76 µM (inactive) and the GI50 [18] was > 53.5 µM (inactive). The GI50 [19] was 43.3 µM (inactive), the GI50 [20] was 26.2 µM (inactive) and the GI50 [21] was > 100 µM (inactive). The GI50 [22] was 12 µM (inactive), the GI50 [23] was > 100 µM (inactive) and the GI50 [24] was > 81.7 µM (inactive). The GI50 [25] was > 64.9 µM (inactive), the GI50 [26] was 25.6 µM (inactive) and the GI50 [27] was > 47.2 µM (inactive). The GI50 [28] was > 87.9 µM (inactive), the GI50 [29] was 45.4 µM (inactive) and the GI50 [30] was 22.7 µM (inactive). The GI50 [31] was > 44.1 µM (inactive), the GI50 [32] was 36 µM (inactive) and the GI50 [33] was > 43.9 µM (inactive). For the same compound, the GI50 [34] was > 89.3 µM (inactive), the GI50 [35] was 40.4 µM (inactive) and the GI50 [36] was 31 µM (inactive). For the same compound, the GI50 [37] was 43.4 µM (inactive), the GI50 [38] was > 100 µM (inactive) and the GI50 [39] was 19.1 µM (inactive). The GI50 [40] was > 96.6 µM (inactive), the GI50 [41] was 25.1 µM (inactive) and the GI50 [42] was 28.2 µM (inactive). For the same compound, the GI50 [43] was > 100 µM (inactive), the GI50 [44] was 32.4 µM (inactive) and the GI50 [45] was > 100 µM (inactive). The GI50 [46] was > 100 µM (inactive), the GI50 [47] was > 52.6 µM (inactive) and the GI50 [48] was 35.2 µM (inactive). For the same compound, the GI50 [49] was 13.4 µM (inactive), the GI50 [50] was > 100 µM (inactive) and the GI50 [51] was 53.1 µM (inactive). The GI50 [52] was > 100 µM (inactive), the GI50 [53] was 13.7 µM (inactive) and the GI50 [54] was > 66.7 µM (inactive). The GI50 [55] was 65.9 µM (inactive), the GI50 [56] was > 100 µM (inactive) and the GI50 [57] was 21.1 µM (inactive).
For `CCC(C)NC1=C(NC(C)=O)C(=O)c2ccccc2C1=O` (stereo not drawn), the GI50 [1] was 15.6 µM (inactive), the GI50 [2] was > 75 µM (inactive) and the GI50 [3] was 54.8 µM (inactive). The GI50 [4] was 54.1 µM (inactive), the GI50 [5] was 40.6 µM (inactive) and the GI50 [6] was 48.3 µM (inactive). The GI50 [7] was > 75 µM (inactive), the GI50 [8] was 46.1 µM and the GI50 [9] was 27.6 µM (inactive). For the same compound, the GI50 [10] was > 75 µM (inactive), the GI50 [11] was > 75 µM (inactive) and the GI50 [12] was > 75 µM (inactive). The GI50 [13] was > 75 µM (inactive), the GI50 [14] was > 75 µM (inactive) and the GI50 [15] was > 75 µM (inactive). For the same compound, the GI50 [16] was > 75 µM (inactive), the GI50 [17] was > 75 µM (inactive) and the GI50 [18] was > 75 µM (inactive). For the same compound, the GI50 [19] was > 7.5 µM (inactive), the GI50 [20] was 22.5 µM (inactive) and the GI50 [21] was > 75 µM (inactive). For the same compound, the GI50 [22] was 17.5 µM (inactive), the GI50 [23] was > 75 µM (inactive) and the GI50 [24] was > 75 µM (inactive). The GI50 [25] was > 75 µM (inactive), the GI50 [26] was 28.4 µM (inactive) and the GI50 [27] was > 75 µM (inactive). The GI50 [28] was > 75 µM (inactive), the GI50 [29] was 27.4 µM (inactive) and the GI50 [30] was > 75 µM (inactive). The GI50 [31] was > 75 µM (inactive), the GI50 [32] was > 75 µM (inactive) and the GI50 [33] was > 75 µM (inactive). The GI50 [34] was > 75 µM (inactive), the GI50 [35] was > 75 µM (inactive) and the GI50 [36] was > 75 µM (inactive). The GI50 [37] was > 75 µM (inactive), the GI50 [38] was > 75 µM (inactive) and the GI50 [39] was 21.8 µM (inactive). The GI50 [40] was > 75 µM (inactive), the GI50 [41] was 74 µM (inactive) and the GI50 [42] was > 75 µM (inactive). The GI50 [43] was > 75 µM (inactive), the GI50 [58] was > 75 µM (inactive) and the GI50 [44] was > 75 µM (inactive). For the same compound, the GI50 [45] was > 75 µM (inactive), the GI50 [46] was > 75 µM (inactive) and the GI50 [47] was > 75 µM (inactive). For the same compound, the GI50 [48] was 43.9 µM (inactive), the GI50 [50] was > 75 µM (inactive) and the GI50 [51] was > 75 µM (inactive). The GI50 [52] was > 75 µM (inactive), the GI50 [53] was > 75 µM (inactive) and the GI50 [54] was > 75 µM (inactive). The GI50 [56] was > 75 µM (inactive) and the GI50 [57] was 13.4 µM (inactive).
With `Cc1cccc(C)c1NC(=O)CCc1nnc(S)[nH]1` the GI50 [1] was > 100 µM (inactive), the GI50 [2] was > 100 µM (inactive) and the GI50 [3] was > 100 µM (inactive). The GI50 [6] was > 100 µM (inactive), the GI50 [7] was > 100 µM (inactive) and the GI50 [8] was over 100 µM. The GI50 [10] was > 100 µM (inactive), the GI50 [11] was > 100 µM (inactive) and the GI50 [12] was > 100 µM (inactive). The GI50 [13] was > 100 µM (inactive), the GI50 [14] was > 100 µM (inactive) and the GI50 [15] was > 100 µM (inactive). The GI50 [16] was > 100 µM (inactive), the GI50 [17] was > 100 µM (inactive) and the GI50 [18] was > 100 µM (inactive). For the same compound, the GI50 [19] was > 100 µM (inactive), the GI50 [20] was > 100 µM (inactive) and the GI50 [21] was > 100 µM (inactive). The GI50 [22] was > 100 µM (inactive), the GI50 [23] was > 100 µM (inactive) and the GI50 [24] was > 100 µM (inactive). The GI50 [26] was > 100 µM (inactive), the GI50 [27] was > 100 µM (inactive) and the GI50 [28] was > 100 µM (inactive). For the same compound, the GI50 [29] was > 100 µM (inactive), the GI50 [30] was > 100 µM (inactive) and the GI50 [31] was > 100 µM (inactive). For the same compound, the GI50 [32] was > 100 µM (inactive), the GI50 [33] was > 100 µM (inactive) and the GI50 [59] was > 100 µM (inactive). The GI50 [35] was > 100 µM (inactive), the GI50 [36] was > 100 µM (inactive) and the GI50 [38] was > 100 µM (inactive). The GI50 [39] was > 100 µM (inactive), the GI50 [40] was > 100 µM (inactive) and the GI50 [41] was > 100 µM (inactive). The GI50 [42] was > 100 µM (inactive), the GI50 [43] was > 100 µM (inactive) and the GI50 [58] was > 100 µM (inactive). The GI50 [44] was > 100 µM (inactive), the GI50 [45] was > 100 µM (inactive) and the GI50 [47] was > 100 µM (inactive). For the same compound, the GI50 [48] was > 100 µM (inactive), the GI50 [50] was > 100 µM (inactive) and the GI50 [51] was > 100 µM (inactive). For the same compound, the GI50 [52] was > 100 µM (inactive), the GI50 [54] was > 100 µM (inactive) and the GI50 [55] was > 100 µM (inactive). For the same compound, the GI50 [56] was > 100 µM (inactive) and the GI50 [57] was > 100 µM (inactive).
